Patent US6653334B1, “Benzoxazole compound and pharmaceutical composition containing the same” (Kowa Co., Ltd., priority 2002, dated 2003)

How the values were obtained:
Format in all cases: cell-based
hPPARα = target: T1, hPPARα (Homo sapiens, UniProt Q07869); assay: PPAR transfection (luciferase reporter) assay in COS cells, hPPARα; settings: agonist activity, transiently transfected COS cells, 16 hours incubation; read-out: hPPAR; EC50 α
T1 construct: expressed in transfected cells; host or cells: COS cells (Cercopithecus aethiops kidney)
T1 sequence (Q07869 1-468): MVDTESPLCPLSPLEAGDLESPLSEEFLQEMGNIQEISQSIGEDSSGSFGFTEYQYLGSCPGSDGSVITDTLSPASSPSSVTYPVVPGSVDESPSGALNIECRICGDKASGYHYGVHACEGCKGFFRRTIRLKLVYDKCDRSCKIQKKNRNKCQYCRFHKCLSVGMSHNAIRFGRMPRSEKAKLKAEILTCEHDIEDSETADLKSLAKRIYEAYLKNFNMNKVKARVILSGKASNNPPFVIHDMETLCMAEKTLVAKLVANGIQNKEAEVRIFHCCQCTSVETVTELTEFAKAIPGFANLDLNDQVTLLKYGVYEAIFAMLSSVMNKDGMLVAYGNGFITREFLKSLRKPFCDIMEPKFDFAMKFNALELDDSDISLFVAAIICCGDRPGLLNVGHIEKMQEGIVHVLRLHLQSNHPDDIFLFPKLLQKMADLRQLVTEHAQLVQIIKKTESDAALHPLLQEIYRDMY

hPPARγ = target: T2, hPPARγ (Homo sapiens, UniProt P37231); assay: PPAR transfection (luciferase reporter) assay in COS cells, hPPARγ; settings: agonist activity, transiently transfected COS cells, 16 hours incubation; read-out: hPPAR; EC50 γ
T2 construct: expressed in transfected cells; host or cells: COS cells (Cercopithecus aethiops kidney)
T2 sequence (P37231 1-505): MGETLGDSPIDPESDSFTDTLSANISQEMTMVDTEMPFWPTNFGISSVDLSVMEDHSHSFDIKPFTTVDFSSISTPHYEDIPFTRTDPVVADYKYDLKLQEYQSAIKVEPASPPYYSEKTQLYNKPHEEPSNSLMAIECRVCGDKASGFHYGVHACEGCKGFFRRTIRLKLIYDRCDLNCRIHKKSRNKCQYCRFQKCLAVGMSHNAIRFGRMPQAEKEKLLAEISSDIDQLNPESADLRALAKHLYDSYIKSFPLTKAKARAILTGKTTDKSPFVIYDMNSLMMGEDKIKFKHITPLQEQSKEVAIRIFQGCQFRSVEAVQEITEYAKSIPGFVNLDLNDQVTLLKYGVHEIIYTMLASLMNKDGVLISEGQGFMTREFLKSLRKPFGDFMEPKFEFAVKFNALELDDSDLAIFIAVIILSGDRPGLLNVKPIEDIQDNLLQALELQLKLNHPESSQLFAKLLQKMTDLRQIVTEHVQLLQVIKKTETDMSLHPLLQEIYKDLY

hPPARδ = target: T3, hPPARδ (Homo sapiens, UniProt Q03181); assay: PPAR transfection (luciferase reporter) assay in COS cells, hPPARδ; settings: agonist activity, transiently transfected COS cells, 16 hours incubation; read-out: hPPAR; EC50 δ
T3 construct: expressed in transfected cells; host or cells: COS cells (Cercopithecus aethiops kidney)
T3 sequence (Q03181 1-441): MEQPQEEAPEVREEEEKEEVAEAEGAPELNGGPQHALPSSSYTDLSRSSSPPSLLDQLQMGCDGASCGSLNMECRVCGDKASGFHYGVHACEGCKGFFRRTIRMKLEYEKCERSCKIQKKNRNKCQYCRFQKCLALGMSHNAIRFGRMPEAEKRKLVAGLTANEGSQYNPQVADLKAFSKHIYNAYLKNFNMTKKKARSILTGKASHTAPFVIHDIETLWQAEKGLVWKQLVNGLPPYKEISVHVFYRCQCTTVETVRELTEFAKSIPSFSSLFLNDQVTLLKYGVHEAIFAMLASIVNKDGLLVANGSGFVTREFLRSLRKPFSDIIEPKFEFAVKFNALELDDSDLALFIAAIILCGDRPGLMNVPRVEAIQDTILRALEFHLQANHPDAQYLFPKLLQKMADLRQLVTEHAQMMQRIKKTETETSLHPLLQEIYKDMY

EC50 (hPPARα) [nM] | EC50 (hPPARγ) [nM] | EC50 (hPPARδ) [nM] | Compound
100 | > 10000 | > 10000 | CC(C)(Oc1ccc(CN(Cc2ccccc2[N+](=O)[O-])c2nc3ccccc3o2)cc1)C(=O)O [Example 29, 2-[4-[[N-(Benzoxazol-2-yl)-N-(2-nitrobenzyl)]aminomethyl]phenoxy]-2-methylpropionic Acid]
3 | 100 | > 10000 | CCCCCCCCN(Cc1cccc(OC(CC)C(=O)O)c1)c1nc2ccccc2o1 (stereo not drawn) [Example 59, 2-[3-[[N-(Benzoxazol-2-yl)-N-n-octyl]aminomethyl]phenoxy]butyric Acid]
2 | 100 | 900 | CC(Oc1cccc(CN(CCCc2ccc(Cl)cc2)c2nc3ccccc3o2)c1)C(=O)O (stereo not drawn) [Example 63, 2-[3-[[N-(Benzoxazol-2-yl)-N-(3-(4-chlorophenyl)propyl)]aminomethyl]phenoxy]propionic Acid]
10 | 500 | 300 | CCCCCCCCN(CCCc1ccccc1OC(C)(C)C(=O)O)c1nc2ccccc2o1 [Example 155, 2-[2-[3-[N-(Benzoxazol-2-yl)-N-n-octyl]aminopropyl]phenoxy]-2-methylpropionic Acid]
3 | 100 | 500 | CC(C)(Oc1ccc(CN(Cc2cccc3ccccc23)c2nc3ccccc3o2)cc1)C(=O)O [Example 12, 2-[4-[[N-(Benzoxazol-2-yl)-N-(naphth-1-ylmethyl)]aminomethyl]phenoxy]-2-methylpropionic Acid]
30 | 2000 | > 10000 | CCCN(CCCc1ccc(OC(C)(C)C(=O)O)cc1)c1nc2ccccc2o1 [Example 132, 2-[4-[3-[N-(Benzoxazol-2-yl)-N-n-propyl]aminopropyl]phenoxy]-2-methylpropionic Acid]
10 | 700 | 4500 | CCCCCCCCN(Cc1cccc(OCC(=O)O)c1)c1nc2ccccc2o1 [Example 48, 3-[[N-(Benzoxazol-2-yl)-N-n-octyl]aminomethyl]phenoxyacetic Acid]
10 | 400 | 1100 | CCCCCCCN(Cc1cccc(OCC(=O)O)c1)c1nc2ccccc2o1 [Example 46, 3-[[N-(Benzoxazol-2-yl)-N-n-heptyl]aminomethyl]phenoxyacetic Acid]
10 | 200 | > 10000 | CC(C)(Oc1cccc(CN(Cc2ccc(Cl)cc2)c2nc3ccccc3o2)c1)C(=O)O [compound 1]
0.3 | 200 | > 10000 | CCCCCCCCN(Cc1cccc(OC(C)C(=O)O)c1)c1nc2ccccc2o1 (stereo not drawn) [Example 69, 2-[3-[[N-(Benzoxazol-2-yl)-N-n-octyl]aminomethyl]phenoxy]propionic Acid]
10 | 200 | 1800 | CN(C)c1ccc(CN(Cc2cccc(OC(C)(C)C(=O)O)c2)c2nc3ccccc3o2)cc1 [Example 41, 2-[3-[[N-(Benzoxazol-2-yl)-N-(4-dimethylaminobenzyl)]aminomethyl]phenoxy]-2-methylpropionic Acid]
4 | 100 | > 10000 | CC#CCN(CCCc1cccc(OC(C)(C)C(=O)O)c1)c1nc2ccccc2o1 [Example 121, 2-[3-[3-[N-(Benzoxazol-2-yl)-N-(2-butynyl)]aminopropyl]phenoxy]-2-methylpropionic Acid]
10 | 400 | > 10000 | CCN(CCCc1ccc(OC(C)(C)C(=O)O)cc1)c1nc2ccccc2o1 [Example 114, 2-[4-[3-[N-(Benzoxazol-2-yl)-N-ethyl]aminopropyl]phenoxy]-2-methylpropionic Acid]
10 | > 10000 | > 10000 | CC(C)(Oc1cccc(CN(Cc2cccc3ccccc23)c2nc3ccccc3o2)c1)C(=O)O [Example 135, 2-[3-[[N-(Benzoxazol-2-yl)-N-(naphth-1-ylmethyl)]aminomethyl]phenoxy]-2-methylpropionic Acid]
1 | 100 | 1000 | CCC(Oc1cccc(CN(CCCc2ccc(Cl)cc2)c2nc3ccccc3o2)c1)C(=O)O (stereo not drawn) [Example 56, 2-[3-[[N-(Benzoxazol-2-yl)-N-(3-(4-chlorophenyl)propyl)]aminomethyl]phenoxy]butyric Acid]
10 | 200 | > 10000 | CCCCCCCCN(Cc1cccc(OC(C)(C)C(=O)O)c1)c1nc2ccccc2o1 [Example 6, 2-[3-[[N-(Benzoxazol-2-yl)-N-n-octyl]aminomethyl]phenoxy]-2-methylpropionic Acid]
1 | 400 | > 10000 | CC(Oc1cccc(CN(CCCc2ccccc2)c2nc3ccccc3o2)c1)C(=O)O (stereo not drawn) [Example 70, 2-[3-[[N-(Benzoxazol-2-yl)-N-(3-phenylpropyl)]aminomethyl]phenoxy]propionic Acid]
2 | 100 | 600 | CCC(Oc1cccc(CN(CCCc2ccccc2)c2nc3ccccc3o2)c1)C(=O)O (stereo not drawn) [Example 55, 2-[3-[[N-(Benzoxazol-2-yl)-N-(3-phenylpropyl)]aminomethyl]phenoxy]butyric Acid]
10 | 300 | 3000 | CC(C)N(CCCc1ccc(OC(C)(C)C(=O)O)cc1)c1nc2ccccc2o1 [Example 133, 2-[4-[3-[N-(Benzoxazol-2-yl)-N-isopropyl]aminopropyl]phenoxy]-2-methylpropionic Acid]
100 | > 10000 | > 10000 | CCCN(Cc1cccc(OC(C)C(=O)O)c1)c1nc2ccccc2o1 (stereo not drawn) [Example 74, 2-[3-[[N-(Benzoxazol-2-yl)-N-n-propyl]aminomethyl]phenoxy]propionic Acid]
